What follows are compounds tested against MLL1-ASH2L/RbBP5/WDR5/DPY30 (assay: Inhibition of recombinant human MLL1 complex (MLL1/Ash2L/RbBP5/WDR5/DPY-30) expressed in Escherichia coli Rosetta 2 (DE3) cells using H3 (1 to 21) peptide as substrate incubated for 1 hr in presence of 3[H] SAM by […] assay).

IC50 | Compound
592 nM | NCCN(CC[C@H](N)C(=O)O)C[C@H]1O[C@@H](n2cnc3c(N)ncnc32)[C@H](O)[C@@H]1O
119 nM | Nc1ncnc2c1ncn2[C@@H]1O[C@H](CN(CC[C@H](N)C(=O)O)CC2CN(Cc3coc4ccccc34)C2)[C@@H](O)[C@H]1O
99.5 nM | Nc1ncnc2c1ncn2[C@@H]1O[C@H](CN(CC[C@H](N)C(=O)O)CC2CN(Cc3cccc(Cl)c3)C2)[C@@H](O)[C@H]1O
138 nM | Nc1ncnc2c1ncn2[C@@H]1O[C@H](CN(CC[C@H](N)C(=O)O)CC2CN(CCC(c3ccccc3)c3ccccc3)C2)[C@@H](O)[C@H]1O
451 nM | Nc1ncnc2c1ncn2[C@@H]1O[C@H](CN(CC[C@H](N)C(=O)O)C2CC(CNCCCc3ccccc3)C2)[C@@H](O)[C@H]1O (some centres undefined)
21.8 nM | Nc1ncnc2c1ncn2[C@@H]1O[C@H](CN(CC[C@H](N)C(=O)O)CC2CN(Cc3ccoc3)C2)[C@@H](O)[C@H]1O
15.2 nM | Nc1ncnc2c1ncn2[C@@H]1O[C@H](CN(CC[C@H](N)C(=O)O)CC2CN(Cc3ccsc3)C2)[C@@H](O)[C@H]1O
46.8 nM | Nc1ncnc2c1ncn2[C@@H]1O[C@H](CN(CC[C@H](N)C(=O)O)CC2CN(Cc3ccccc3)C2)[C@@H](O)[C@H]1O
724 nM | Nc1ncnc2c1ncn2[C@@H]1O[C@H](CSCC[C@H](N)C(=O)O)[C@@H](O)[C@H]1O [S-ADENOSYLHOMOCYSTEINE]

Further lines, the compound ahead of its results:

Compound | IC50
Nc1ncnc2c1ncn2[C@@H]1O[C@H](CN(CC[C@H](N)C(=O)O)CC2CN(CCCc3ccccc3)C2)[C@@H](O)[C@H]1O | 29.6 nM
Nc1ncnc2c1ncn2[C@@H]1O[C@H](CN(CC[C@H](N)C(=O)O)CC2CN(Cc3ccc(Cl)cc3)C2)[C@@H](O)[C@H]1O | 55.6 nM
Nc1ncnc2c1ncn2[C@@H]1O[C@H](CN(CC[C@H](N)C(=O)O)C2CN(CCCC3CCCC3)C2)[C@@H](O)[C@H]1O | 234 nM
Nc1ncnc2c1ncn2[C@@H]1O[C@H](CN(CC[C@H](N)C(=O)O)CC2CN(Cc3ccccc3Cl)C2)[C@@H](O)[C@H]1O | 150 nM
Nc1ncnc2c1ncn2[C@@H]1O[C@H](CN(CC[C@H](N)C(=O)O)C2CC(NCCCC3CCCC3)C2)[C@@H](O)[C@H]1O (some centres undefined) | 127 nM
Nc1ncnc2c1ncn2[C@@H]1O[C@H](CN(CC[C@H](N)C(=O)O)CC2CN(Cc3cccs3)C2)[C@@H](O)[C@H]1O | 66.5 nM
CCCCN1CC(CN(CC[C@H](N)C(=O)O)C[C@H]2O[C@@H](n3cnc4c(N)ncnc43)[C@H](O)[C@@H]2O)C1 | 72.4 nM
Nc1ncnc2c1ncn2[C@@H]1O[C@H](CN(CC[C@H](N)C(=O)O)CC2CN(CCCC3CCCC3)C2)[C@@H](O)[C@H]1O | 25.5 nM
Nc1ncnc2c1ncn2[C@@H]1O[C@H](CN(CC[C@H](N)C(=O)O)Cc2cn(CCc3ccccc3)nn2)[C@@H](O)[C@H]1O | 132 nM
Nc1ncnc2c1ncn2[C@@H]1O[C@H](CN(CCCNCCCc2ccccc2)CC[C@H](N)C(=O)O)[C@@H](O)[C@H]1O | 201 nM

From ChEMBL document CHEMBL4616718, “Discovery of Potent Small-Molecule Inhibitors of MLL Methyltransferase” (ACS Med Chem Lett, 2020)
